Data from doi:10.1101/2025.08.01.667454v3 (biorxiv, 2025).

Experiments:
BAF60A^YLD+SWIB [1] = target: T1, BAF60A^YLD+SWIB (Homo sapiens, UniProt Q96GM5); experiment: fluorescence polarization competition with PU.[…]; type: binding
BAF60A^YLD+SWIB [2] = target: T1, BAF60A^YLD+SWIB; experiment: SPR steady state, amine-coupled protein; type: binding

| IC50 (BAF60A^YLD+SWIB [1]) [µM] | Kd (BAF60A^YLD+SWIB [2]) [µM] | Structure (SMILES) |
| --- | --- | --- |
| 9.13 | 8.89 | CC1=C(C(=O)Nc2cccc(C)n2)C(c2cccc(Br)c2)C2=C(CCCC2=O)N1 (stereo not shown) [PPSC-001] |
| 33 | 22.6 | COC(=O)c1ccc(Cn2c(C)nc3cc4c(cc32)OCCO4)cc1 [PPSC-002] |
